Earlier results, collected in patent US12100485B2, “Machine learning and molecular simulation based methods for enhancing binding and activity prediction” (The Board of Trustees of the Leland Stanford Junior …, priority 2018, dated 2024).

System: μOR

COc1ccc(CN(C(=O)[C@@H](N)Cc2c(C)cc(C(N)=O)cc2C)[C@@H](C)c2ncc(-c3ccccc3)[nH]2)cc1C(=O)O [eluxadoline]
Action: agonist

CN1CC[C@]23c4c5ccc(O)c4O[C@H]2[C@@H](O)CC[C@H]3[C@H]1C5 [dihydromorphine]
Action: agonist

CC[C@@H](O)C(C[C@@H](C)N(C)C)(c1ccccc1)c1ccccc1 [alphamethadol]
Action: agonist

hemorphin-4
Action: agonist

CCOC(C(=O)OCCN(C)C)(c1ccccc1)c1ccccc1 [dimenoxadol]
Action: agonist

C[N@+]1(CC2CC2)CC[C@]23CC(=O)CC[C@@]2(O)[C@H]1Cc1ccc(C(N)=O)c(O)c13 [methylsamidorphan]
Action: antagonist

CN1CC[C@]23c4c5ccc(O)c4O[C@H]2CCC[C@H]3[C@H]1C5 [desomorphine]
Action: agonist

CO[C@@]12CCC(=O)[C@]3(C)Oc4c(O)ccc5c4[C@@]31CCN(C)[C@@H]2C5 [14-methoxymetopon]
Action: agonist

CCC(=O)O[C@](Cc1ccccc1)(c1ccccc1)[C@H](C)CN(C)C [dextropropoxyphene]
Action: agonist

CC[C@@H](OC(C)=O)C(C[C@@H](C)N(C)C)(c1ccccc1)c1ccccc1 [alphacetylmethadol]
Action: agonist

CCOC(=O)C1(c2ccccc2)CCN(CCCNc2ccccc2)CC1 [piminodine]
Action: agonist

CN1CC[C@]23c4c5ccc(O)c4O[C@H]2[C@@H](O)C=C[C@H]3[C@H]1C5 [morphine]
Action: agonist

COc1ccsc1CNCC[C@@]1(c2ccccn2)CCOC2(CCCC2)C1 [oliceridine]
Action: agonist

Oc1ccc2c3c1O[C@H]1[C@@H](O)C=C[C@H]4[C@@H](C2)N(CCc2ccccc2)CC[C@@]341 [n-phenethylnormorphine]
Action: agonist

C[C@H](CN1CCOCC1)C(C(=O)N1CCCC1)(c1ccccc1)c1ccccc1 [dextromoramide]
Action: agonist

CCC(=O)OC1(c2ccccc2)CCCN(C)CC1C (centres unmarked) [proheptazine]
Action: agonist

CCC(=O)C(CC(C)N1CCCCC1)(c1ccccc1)c1ccccc1 (centres unmarked) [dipipanone]
Action: agonist

CC[C@@H]1CN2CC[C@]3(Nc4cccc(OC)c4C3=O)[C@@H]2C[C@@H]1/C(=C\OC)C(=O)OC [mitragynine_pseudoindoxyl]
Action: agonist

CN1CC[C@]2(C)C[C@@H](Cc3ccc(O)cc32)C1 [eptazocine]
Action: antagonist

N#CC(CCN1CCC(C(N)=O)(N2CCCCC2)CC1)(c1ccccc1)c1ccccc1 [piritramide]
Action: agonist
